# Patent US20240182495A1, “ANTIBACTERIAL COMPOUNDS” (JANSSEN SCIENCES IRELAND UNLIMITED COMPANY, priority 2021, published 2024)
# Test system: Mycobacterium tuberculosis strain (EH4.0, GFP-expressing; Test 2: H37Rv)
# Test: MIC determination against M. tuberculosis, Test 1 (and/or Test 2)
# Format: cell-based
# Conditions: 7 days incubation, fluorescence
row,SMILES,pIC50
1,CCc1nc2nc(C)c(Cl)cn2c1C(=O)NCc1ccc(-c2nc3n(n2)CCN(S(=O)(=O)C(F)(F)F)C3)cc1 [Compound 8],7.58
2,CCc1nc2nc(NC)c(Cl)cn2c1C(=O)NCc1ccc(-c2nc3n(n2)CCN(S(=O)(=O)C(F)(F)F)C3)c(F)c1 [Compound 13],<6.301
3,CCc1nc2cc(Cl)c(C)cn2c1C(=O)NCc1cnc(-c2nc3n(n2)CCN(S(=O)(=O)C(F)(F)F)C3)c(F)c1 [Compound 19],6.48

# Same assay, conditions: Mycobacterium tuberculosis, H37RV, 168 h, 7 days incubation, fluorescence
row,SMILES,IC50
1,CCc1nc2ccc(Cl)cn2c1C(=O)NCc1ccc(-c2nc3n(n2)CCN(S(=O)(=O)C(F)(F)F)C3)c(F)c1 [Compound 3],61.7 nM
2,CCc1nc2ncc(Cl)cn2c1C(=O)NCc1ccc(-c2nc3n(n2)CCN(S(=O)(=O)C(F)(F)F)C3)c(F)c1 [Compound 4],12.6 nM
3,O=C(NCc1ccc(-c2nc3n(n2)CCN(S(=O)(=O)C(F)(F)F)C3)c(F)c1)c1c(C(F)F)nc2ccc(Cl)cn12 [Compound 5],229 nM
4,CCc1nc2cc(C)c(Cl)cn2c1C(=O)NCc1ccc(-c2nc3n(n2)CCN(S(=O)(=O)C(F)(F)F)C3)c(F)c1 [Compound 9],363 nM
5,CCc1nc2c(Cl)c(OC)ccn2c1C(=O)NCc1ccc(-c2nc3n(n2)CCN(S(=O)(=O)C(F)(F)F)C3)c(F)c1 [Compound 11],447 nM
6,CCc1nc2cc(OC)c(Cl)cn2c1C(=O)NCc1cnc(-c2nc3n(n2)CCN(S(=O)(=O)C(F)(F)F)C3)c(F)c1 [Compound 16],501 nM
7,CCc1nc2ncc(F)cn2c1C(=O)NCc1ccc(-c2nc3n(n2)CCN(S(=O)(=O)C(F)(F)F)C3)c(F)c1 [Compound 17],195 nM
8,CCc1nc2nc3c(cn2c1C(=O)NCc1ccc(-c2nc4n(n2)CCN(S(=O)(=O)C(F)(F)F)C4)c(F)c1)CCOC3 [Compound 18],151 nM
9,CCc1nc2cc(C)c(Cl)cn2c1C(=O)NCc1cnc(-c2nc3n(n2)CCN(S(=O)(=O)C(F)(F)F)C3)c(F)c1 [Compound 20],501 nM
10,CCc1nc2c(F)cc(Cl)cn2c1C(=O)NCc1ccc(-c2nc3n(n2)CCN(S(=O)(=O)C(F)(F)F)C3)cc1 [Compound 21],40.7 nM
11,CCc1nc2ccc(F)cn2c1C(=O)NCc1ccc(-c2nc3n(n2)CCN(S(=O)(=O)C(F)(F)F)C3)cc1 [Compound 22],44.7 nM
12,CCc1nc2cc(C)c(C)cn2c1C(=O)NCc1ccc(-c2nc3n(n2)CCN(S(=O)(=O)C(F)(F)F)C3)cc1 [Compound 23],32.4 nM
13,CCc1nc2cc(Cl)c(C)cn2c1C(=O)NCc1ccc(-c2nc3n(n2)CCN(S(=O)(=O)C(F)(F)F)C3)cc1 [Compound 25],182 nM
14,CCc1nc2ncc(C(C)C)cn2c1C(=O)NCc1ccc(-c2nc3n(n2)CCN(S(=O)(=O)C(F)(F)F)C3)cc1 [Compound 26],245 nM
15,CCc1nc2ccc(C3CC3)cn2c1C(=O)NCc1ccc(-c2nc3n(n2)CCN(S(=O)(=O)C(F)(F)F)C3)cc1 [Compound 27],138 nM
16,CCc1nc2ncc(C3CC3)cn2c1C(=O)NCc1ccc(-c2nc3n(n2)CCN(S(=O)(=O)C(F)(F)F)C3)cc1 [Compound 28],53.7 nM
17,Cc1cnc2nc(C)c(C(=O)NCc3ccc(-c4nc5n(n4)CCN(S(=O)(=O)C(F)(F)F)C5)cc3)n2c1 [Compound 29],21.9 nM
18,Cc1ccc2nc(C3CC3)c(C(=O)NCc3ccc(-c4nc5n(n4)CCN(S(=O)(=O)C(F)(F)F)C5)cc3)n2c1 [Compound 30],41.7 nM
19,CCc1nc2n(c1C(=O)NCc1ccc(-c3nc4n(n3)CCN(S(=O)(=O)C(F)(F)F)C4)cc1)CCCC2 [Compound 31],24 nM
20,Cc1cn2c(C(=O)NCc3ccc(-c4nc5n(n4)CCN(S(=O)(=O)C(F)(F)F)C5)cc3)c(C)nc2s1 [Compound 32],60.3 nM
21,CCc1nc2nc(C)c(C)cn2c1C(=O)NCc1ccc(-c2nc3n(n2)CCN(S(=O)(=O)C(F)(F)F)C3)cc1 [Compound 33],12.9 nM
22,Cc1ccc2nc(C)c(C(=O)NCc3ccc(-c4nc5n(n4)CCN(S(=O)(=O)C(F)(F)F)C5)cc3)n2c1 [Compound 34],12.6 nM
23,CCc1nc2ccc(C(C)C)cn2c1C(=O)NCc1ccc(-c2nc3n(n2)CCN(S(=O)(=O)C(F)(F)F)C3)cc1 [Compound 35],> 500 nM
